`CCCC1(C(=O)O)c2ccccc2-c2ccccc21`: the melting point is 120 to 122 °C.
As for `O=C(Nc1ccc2c(c1)NCCC2)c1cc2cc(F)ccc2n1Cc1cccc(F)c1`, the figure is 149 to 151 °C; as for `Cc1nc(N2CCCC(CO)C2)c2nc(-c3ccccc3)cc-2[nH]1` (centres undefined), 255 to 256 °C; as for `CC(C)(C)OC(=O)Cn1c(C(=O)c2ccccc2)ccc1-c1ccccc1`, 85 to 87 °C.
In turn, `CN(C)CCOc1ccc2c(=O)c3ccc(OCCN(C)C)cc3oc2c1` returned a melting point of 87.5 to 89 °C.
As for `CC1(C)C(NN)=Nc2ccccc2C1(O)c1ccccc1` (centres undefined), the figure is 195 to 196 °C; as for `O=C(CN1CCN(CC(=O)N2CCC3(CC2)Cn2cc([N+](=O)[O-])nc2O3)CC1)Nc1ccc(C(F)(F)F)cc1`, 133 to 135 °C.
In turn, `CCc1ccc(-c2ccc3c(c2)C=C(C(=O)Nc2ccc(CN(C)C4CCOCC4)cc2)CCN3C)cc1CC` returned a melting point of 127 to 129 °C.
As for `O=C(O)COc1ccc(SCc2ccccc2OCc2ccc(C(F)(F)F)cc2)c2c1CCC2`, the melting point lay in the range of 150 to 152 °C.
As for `CCOc1nc(-c2ccc(F)cc2C)c2c(n1)N(c1c(F)cccc1F)C(=O)NC2`, the figure is 191 to 194 °C; as for `O=C1N(C(c2ccccc2)c2ccccc2)c2ccccc2C12COc1ccc(F)cc12` (centres undefined), 182 to 184 °C; as for `CCOC(=O)N(c1cccc(C(F)(F)F)c1)c1ccccc1N=NC(NC(=O)CCl)(C(=O)OCC)C(=O)OCC`, 76 to 79 °C.
As for `COc1ccc(C(=O)OC2C=C(C)C(=O)CC(C)(C)C2OC(C)=O)cc1` (centres undefined), the figure is 93 to 94 °C; as for `O=c1oc(/C=C/c2ccc(OC(F)F)c(OC(F)F)c2)nc2ccccc12`, 113 to 115 °C.
With `N#Cc1ccc(C(=O)N[C@H]2CC[C@H](CCN3CCN(c4nccc5c4OCC5)CC3)CC2)cc1` the figure was 262 °C; with `O=C(Cl)N1CC(Sc2ccc(Cl)cc2)C1`, 47 to 48 °C; with `Cc1nc2ccc3c(c2o1)C(CCNC(=O)c1ccccc1)CC3` (centres undefined), 73 to 76 °C.
Regarding `O=S1CSC(=C(c2ccc(F)cc2)c2ccc(F)cc2)SC1` (centres undefined), the melting point fell in the range of 155 to 156 °C.
In turn, `COC(=O)c1ccc(Cc2cccc3ccc(C=C(C)C(=O)O)cc23)c(OC)c1` had a melting point of 187 to 188 °C.
With `COC(=O)C1(C)CCN(c2cccc(-c3cnc4[nH]cc(C(=O)C(C)(C)C)c4n3)c2)C1` (centres undefined) the figure was 198 to 200 °C.
With `COc1ccc(CC(N)(C#N)CF)cc1OC` (centres undefined) the figure was 76 °C.
With `CN(Cc1csc(N)c1C(=O)c1ccc(Cl)cc1)c1ccccc1` the figure was 129 to 131 °C; with `CC(C)CC(NC(=O)C(Cc1ccccc1)NC(=O)C1CCCCC1CS)C(=O)O` (centres undefined), 156 to 158 °C.
`C[Si](Cn1nc[nH]c1=S)(c1ccccc1F)c1ccccc1F` came in with a melting point of 105 °C.
With `CC(C)(OCc1cc2cc(Cl)ccc2n1S(=O)(=O)c1ccc2c(c1)OCCO2)C(=O)O` the figure was 156 to 158 °C.
Consider `COc1ccc(C2CC(=O)N(Cc3ccc4cc(F)ccc4n3)C2)cc1OC1CCCC1` (centres undefined), for which the melting point is 65 to 68 °C.
For the compound `CCOC(=O)c1c2c3c(cccc3n1C)C(OC)CC2` (centres undefined), the melting point is 63 to 64 °C.
With `CC(=O)NC(Cc1cccc(C(=O)OC(C)(C)C)c1)C(=O)OCc1ccccc1` (centres undefined) the figure was 164 to 166 °C.
For `NS(=O)(=O)c1ccc(-c2c(-c3ccccc3)noc2COCCO)cc1`, the melting point fell in the range of 110 to 121 °C.
Turning to `Cc1cn(-c2ccc(NC(=O)c3ccc(Cl)c(C#Cc4ccc(NC(C)C)nn4)c3)cc2C(F)(F)F)cn1`, the melting point lay in the range of 133 to 135 °C.
`COc1cc(OS(C)(=O)=O)ccc1-c1nc2cc3c(cc2[nH]1)NC(=O)C3(C)C` displayed a melting point of 233 to 235 °C.
For `COc1ccc(CBr)cc1S(=O)(=O)NC(C)(C)C`, the melting point fell in the range of 137 to 142 °C.
For `CN1CCCC(C2=C(C#N)C(c3cccc4nonc34)c3c[nH]nc3N2)C1` (centres undefined), the melting point came to 228 °C.
`CCON=C(CC)C1=C(O)CC(c2c(C)c(C)c3c(c2Cl)CC(C)(CC)C3)CC1=O` (centres undefined): the melting point is 93 to 94 °C.
`CC(=O)NCC1CN(c2ccc(N3CCN(C(=O)COC(=O)CCCN(C)C)CC3)c(F)c2)C(=O)O1` (centres undefined) came in with a melting point of 69 to 71 °C.
As for `CC(C)c1cc(C=C2C(=O)NC(=O)N2C)cc(C(C)C)c1O`, the figure is 197 to 208 °C.
The compound `CN1CCN(c2ccc(Nc3nc(N)c(C(=O)c4c(F)cccc4F)s3)cc2)CC1` showed a melting point of 168 to 170 °C.
As for `CC(C)(C)C1(O)OC(=O)c2ccc(Cl)cc21` (centres undefined), the figure is 160 to 161 °C.
With `Cc1nccc(-c2ccccc2)c1/C=C/C=O` the figure was 98 to 99 °C; with `CC(=O)OC1CSC(Oc2ccc(-c3cccs3)nc2)C(OC(C)=O)C1OC(C)=O` (centres undefined), 172 °C; with `CC1Cn2c(nc3c(cnn3C)c2=O)S1` (centres undefined), 178 to 179 °C.
With `CCCCCCCC[Si](C)(C)c1cccc(Cl)c1C(=O)NCC` the figure was 62 to 63 °C; with `C=C1N(c2ccccc2)C(=O)OC12CCN(CCC=C(c1ccc(F)cc1)c1ccc(F)cc1)CC2`, 136 to 138 °C.
In the case of `Cc1[nH]nc(Oc2ncc(C(F)(F)F)cc2Cl)c1C`, the melting point was in the range of 102 to 103 °C.
`COc1ccc(S(=O)(=O)Nc2ccc(C)cc2)c2c1[nH]c1ccccc12` gave a melting point of 199 to 203 °C.
As for `COc1cc(CNC(=S)NC(COC(=O)C(C)(C)C)Cc2ccc(C)c(C)c2)ccc1OCCN` (centres undefined), the figure is 62 to 63 °C.
As for `FC(F)(F)c1ccc(C=Cc2nc[nH]n2)cc1`, the figure is 141 to 143 °C.
With `COC(=O)C1C(=O)CC2CCC1N2C` (mixture of isomers) the figure was 104 to 107 °C.
In the case of `OCc1cc(N(c2ccccc2)c2ccccc2)c(CO)cc1N(c1ccccc1)c1ccccc1`, the melting point is 208 to 210 °C.
With `CCCCOc1nc(=O)n(C(=O)NC)s1` the figure was 108 °C; with `Nc1ccccc1/C=C/c1ncon1`, 108 to 109 °C.
As for `CCc1nnc(-c2ccc(O)cc2)n1-c1ccccc1`, the figure is 275 °C; as for `N#Cc1ccc(F)cc1C(F)(F)C(F)(F)c1ccccc1`, 68 to 70 °C.
With `CC=CC=CC(=O)Nc1ccc2ncnc(Nc3cccc(Br)c3)c2c1` the figure was 258 to 260 °C; with `CCN1c2ncccc2C(=S)N(C)c2cccnc21`, 157 to 158 °C.
`N#CC1CCn2c(cc3ccccc32)C1` (centres undefined) displayed a melting point of 116 to 118 °C.
As for `O=C(O)CCN=c1sc2ccccc2s1`, the figure is 203 to 204 °C; as for `CCNC(=O)NC(=S)N1N=C(c2ccc([N+](=O)[O-])cc2)c2cc3c(cc2CC1C)OCO3` (centres undefined), 176 to 177 °C; as for `O=S1(=O)c2cccc3cccc(c23)N1CCCN1CC=C(c2c[nH]c3ccc(Cl)cc23)CC1`, 189 °C.
In the case of `CC(=O)c1cc(-c2ccc(S(C)(=O)=O)cc2)n(-c2ccc(F)cc2)n1`, the melting point fell in the range of 207 to 209 °C.
With `CC(C)(CO)CCCNC(=O)NCCCC(C)(C)CO` the figure was 81 to 82 °C; with `CCOC(=O)C1=Cc2cc(-c3ccc(Cl)cc3)ccc2OCC1`, 131 to 134 °C; with `CC(C)(C)OC(=O)N[C@H](Cc1ccc(Cl)c(Cl)c1)C(=O)N1CCC[C@H]1C(=O)NCC1CCc2nc(N)ncc2C1` (some centres undefined), 110 to 113 °C.
As for `CCCCCCCCCCCCOC(=O)c1ccc2oc3ccccc3c(=O)c2c1`, the figure is 79 to 81 °C; as for `O=C(O)c1ccccc1Sc1ccc(C(O)=NCc2ccccc2)c(C(=O)O)c1`, 289 to 294 °C.
In the case of `Fc1cc(CC2(Cc3ccnc(F)c3)c3cccnc3-c3ncccc32)ccn1`, the melting point was 239 to 241 °C.
With `CCCCN1CC2CN(c3ccc([N+](=O)[O-])cc3[N+](=O)[O-])CC(C1)C2(C)C` the figure was 119 °C; with `Cc1oc(-c2ccco2)nc1COc1ccc(COc2nn(-c3ccccc3)cc2C=O)cn1`, 122 to 123 °C; with `COc1ccc(-c2nc3cnccc3[nH]2)c(O)c1`, 255 °C.
As for `CC(c1ccccc1)N1CC(CCl)C(c2ccccc2)(c2ccccc2)C1=O` (centres undefined), the figure is 115 to 120 °C.
`O=C(O)CCn1c(=S)sc2ccccc21` gave a melting point of 164 to 165 °C.
As for `COc1ccc(OC)c2c1C(=O)C=C(SCCCCCCO)C2=O`, the figure is 87 to 88 °C; as for `COC1([N+](=O)[O-])C=CC(C=Cc2ccccc2)=CC1` (centres undefined), 131 to 132 °C; as for `Cn1ncc2c3[nH]ncc3ccc21`, 180 to 184 °C.
Compound `Cc1oc(-c2ccccc2)nc1COc1ccc(COc2ccccc2CC(=O)O)cn1` gave a melting point of 123 to 125 °C.
The compound `N#CC(=CC=Cc1ccccc1)C(=O)O` gave a melting point of 196 °C.
With `COC(=O)c1cn(-c2cc(C(=O)OC)c(N)cc2C(F)(F)F)cn1` the figure was 206 to 208 °C; with `CN(C)C=Nc1c(Cl)cc(N=Cc2ccc(N(C)C)c(Br)c2)cc1Cl`, 140 to 141 °C; with `COc1cccc(S(=O)(=O)N2CCCC2=O)c1`, 108 to 109 °C.
With `COC(=O)c1ccc(-c2ncc(-c3ccc4c(c3)C(C)(C)CCC4(C)C)o2)cc1` the figure was 153 to 155 °C.
With `CSC[C@H](NC(C)=O)C(=O)NO`, the melting point lay in the range of 126 to 127 °C.
As for `COC(=O)c1ccccc1C1=NC(C)(C(C)C)C(=S)N1` (centres undefined), the figure is 134 to 138 °C; as for `COc1ccc(C(=O)N2Cc3ccccc3CC2C(=O)O)cc1` (centres undefined), 178 to 180 °C; as for `CCCOc1ccc2oc(-c3ccc4c(c3)C=C(C(=O)Nc3ccc(CN(C)C5CCOCC5)cc3)CCS4(=O)=O)cc2c1`, 241 to 242 °C.
With `CN(C)c1cc(=S)ss1` the figure was 193 °C.
With `CCc1cc(C(=O)Nc2ccccc2)on1` the figure was 122 to 124 °C; with `Cc1cccc(C)c1CNc1cc(C(=O)N2CC2)cc2c1nc(C)n2C`, 201 to 202 °C; with `Cc1ccc(Cl)cc1N1C(=O)CN(c2ccccc2)C1=S`, 168 to 170 °C.
Turning to `c1snc2c1Sc1csnc1S2`, the melting point was 190 to 191 °C.

As a reminder, the melting point is the temperature, or range, at which the solid turns liquid.

(Values after a melting point compilation (Tetko et al.; mined from patent text by program, amines drawn as free bases though some values may be those of a salt).)
